Measurements from patent US20180071317A1, “USE OF AGENTS THAT ALTER THE PERITUMORAL ENVIRONMENT FOR THE TREATMENT OF CANCER” (SERVICIO ANDALUZ DE SALUD, priority 2011, published 2018).

Legend:
[1] = tested on: fibroblasts (PHF) co-cultivated with tumor cell lymphoblastic leukemia B (SDI); assay: Marker expression (IHC) in PHF co-cultured with SDI tumor cells; assay type: cell-based, human; conditions: PHF co-cultivated with SDI + SP + NK1 antagonist
Procedure: (§1) All cultures were maintained 48 hours, following which the same cells were included in paraffin blocks for subsequent analysis of the expression of different markers by immunohistochemistry (see Example 1). […] All experiments were carried out sixfold. Analyzed markers in fibroblast cells (stromal cells) were: TGF-α, TGF-β1, TGF-β2, TGF-β3, SPARC, MMP-3, MMP-7, MMP-9, MMP-11, MMP-13 and MMP-14.

[2] = tested on: fibroblasts of tumors produced by human glioma tumor line (GAMG); assay: Marker expression (IHC) in fibroblasts of tumor or peritumoral area, mouse model, GAMG; assay type: in vivo; conditions: GAMG tumors in mice, 30 mg/kg/day oral, 7 days
Procedure: In vitro tests conducted in Example 5 are now carried out in an experimental model in mice in vivo. […] Subsequently, the expression in fibroblasts tumoral and peritumoral area of molecular markers associated with progression and maintenance of tumors: TGF-α, TGF-β1, TGF-β2, TGF-β3, MMP-7, MMP-11, MMP-14 were analyzed by immunohistochemistry.
Were injected with 2×10^7 cells tumors (corresponding, in each case to each of the tumor types as specified in Table 9) in 200 of PBS subcutaneously μl. […] Mice were randomized into two groups when the tumors reached a volume of 75 mm^3 One group was treated with non-peptide receptor antagonists NK1 and the other with placebo 200μ1. […] Tumors and samples of non-neoplastic stromal areas remote from the tumor were halved, formalin fixed (4%) and then were included in paraffin blocks for analysis by immunohistochemistry.
The expression on fibroblast cells obtained in the animal model was analyzed by immunohistochemistry, of the above markers: TGF-α, TGF-β1, TGF-β2, TGF-β3, MMP-7, MMP-1 1, MMP-14MP-14. Tables 32 to 35 depict the type of label used and the average percentage of fibroblasts present in non-tumor areas, tumor and peritumoral (±SD) which were expressing the marker shown in each of the tumor types developed from of the different cell lines used. This process was realized in mice treated with non-peptide antagonists of NK1 receptor and in untreated animals (control).

[3] = tested on: fibroblasts (PHF) co-cultured with human glioma tumor cells (GAMG); assay: Marker expression (IHC) in PHF co-cultured with GAMG tumor cells; assay type: cell-based; conditions: co-culture with GAMG; SP 1 μM + antagonist 1 μM; 48 h;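 further: percentage of PHF fibroblasts positive for each marker, cultured in fresh plasma from a healthy donor, six replicates, with fibroblasts cultured alone as reference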
Procedure: as §1

[4] = tested on: fibroblast cells in co-culture with cells isolated from primary human tumors; assay: Marker expression (IHC) in fibroblasts co-cultured with primary human tumor cells (colon, pancreatic, lung carcinoma, glioma, multiple myeloma); assay type: cell-based
Procedure: To check that the interaction of the human primary tumor cells with stromal cells, [human fibroblasts,] stimulates the secretion of substances of importance for survival and tumor progression, co-cultures were performed using stromal cells with human fibroblast-tumor cells obtained directly from primary human tumors.
On this occasion, in order to identify, using immunohistochemical techniques, the secretion of substances of importance for the survival and progression of tumors, the following antibodies were used: TGF-α (SAB4502953), TGF-β1 (SAB4502954), TGF-β2 (SAB4502956), TGF-β3 (SAB4502957), SPARC (HPA002989), MMP-3 (HPA007875), MMP-7 (SAB4501894), MMP-9 (SAB4501896), MMP-11 (SAB4501898) MMP-13 (SAB4501900) and MMP-14 (SAB4501901) using specific antibodies against them. All antibodies used were rabbit polyclonal antibodies obtained from Sigma-Aldrich and were used at a concentration of 1/1000 to achieve these immunohistochemical studies. All experiments were carried out sixfold.

[5] = tested on: fibroblasts (PHF) co-cultured with tumor cells of human endometrial carcinoma (AN3-CA); assay: Marker expression (IHC) in PHF co-cultured with AN3-CA tumor cells; assay type: cell-based; conditions: co-culture with AN3-CA; SP 1 μM + antagonist 1 μM; 48 h;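 further: cultured in fresh healthy-donor blood plasma with added antibiotic-antimycotic, run in six replicates, values give percent of fibroblasts positive for each marker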
Procedure: as §1

[6] = Primary tumor cells (colon carcinoma) co-cultured + fibroblast + SP (1 μM) + NK1 antagonist 1 μM
[7] = co-culture with cells isolated from glioma, SP 1 μM + antagonist 1 μM
[8] = co-culture with cells isolated from lung cancer, SP 1 μM + antagonist 1 μM
[9] = co-culture with cells isolated from multiple myeloma, SP 1 μM + antagonist 1 μM
[10] = co-culture with cells isolated from pancreatic carcinoma, SP 1 μM + antagonist 1 μM

C[C@@H](O[C@H]1OCCN(Cc2n[nH]c(=O)[nH]2)[C@H]1c1ccc(F)cc1)c1cc(C(F)(F)F)cc(C(F)(F)F)c1 [Aprepitant]
0%: cells expressing MMP-3 [1] | cells expressing MMP-7 [1] | cells expressing MMP-9 [1] | cells expressing MMP-11 [1] | cells expressing MMP-13 [1] | cells expressing MMP-14 [1] | cells expressing SPARC [1] | cells expressing TGF-α [1] | cells expressing TGF-β1 [1] | cells expressing TGF-β2 [1] | cells expressing TGF-β3 [1] | fibroblasts expressing MMP-7 [2] | fibroblasts expressing MMP-11 [2] | fibroblasts expressing MMP-14 [2] | fibroblasts expressing TGF-α [2] | fibroblasts expressing TGF-β 1 [2] | fibroblasts expressing TGF-β 2 [2] | fibroblasts expressing TGF-β 3 [2] | PHF cells expressing MMP-3 [3] | PHF cells expressing MMP-7 [3] | PHF cells expressing MMP-9 [3] | PHF cells expressing MMP-11 [3] | PHF cells expressing MMP-13 [3] | PHF cells expressing MMP-14 [3] | PHF cells expressing SPARC [3] | PHF cells expressing TGF-α [3] | PHF cells expressing TGF-β1 [3] | PHF cells expressing TGF-β2 [3] | PHF cells expressing TGF-β3 [3] | Percentage of fibroblast cells which expressed MMP-3 [4, 6] | Percentage of fibroblast cells which expressed MMP-7 [4, 6] | Percentage of fibroblast cells which expressed MMP-9 [4, 6] | Percentage of fibroblast cells which expressed MMP-11 [4, 6] | Percentage of fibroblast cells which expressed MMP-13 [4, 6] | Percentage of fibroblast cells which expressed MMP-14 [4, 6] | Percentage of fibroblast cells which expressed SPARC [4, 6] | Percentage of fibroblast cells which expressed TGFα [4, 6] | Percentage of fibroblast cells which expressed TGFβ1 [4, 6] | Percentage of fibroblast cells which expressed TGFβ2 [4, 6] | Percentage of fibroblast cells which expressed TGFβ3 [4, 6] | Percentage of fibroblast cells which expressed MMP-3 [4, 7] | Percentage of fibroblast cells which expressed MMP-7 [4, 7] | Percentage of fibroblast cells which expressed MMP-9 [4, 7] | Percentage of fibroblast cells which expressed MMP-11 [4, 7] | Percentage of fibroblast cells which expressed MMP-13 [4, 7] | Percentage of fibroblast cells which expressed MMP-14 [4, 7] | Percentage of fibroblast cells which expressed SPARC [4, 7] | Percentage of fibroblast cells which expressed TGFα [4, 7] | Percentage of fibroblast cells which expressed TGFβ1 [4, 7] | Percentage of fibroblast cells which expressed TGFβ2 [4, 7] | Percentage of fibroblast cells which expressed TGFβ3 [4, 7] | Percentage of fibroblast cells which expressed MMP-3 [4, 8] | Percentage of fibroblast cells which expressed MMP-7 [4, 8] | Percentage of fibroblast cells which expressed MMP-9 [4, 8] | Percentage of fibroblast cells which expressed MMP-11 [4, 8] | Percentage of fibroblast cells which expressed MMP-13 [4, 8] | Percentage of fibroblast cells which expressed MMP-14 [4, 8] | Percentage of fibroblast cells which expressed SPARC [4, 8] | Percentage of fibroblast cells which expressed TGFα [4, 8] | Percentage of fibroblast cells which expressed TGFβ1 [4, 8] | Percentage of fibroblast cells which expressed TGFβ2 [4, 8] | Percentage of fibroblast cells which expressed TGFβ3 [4, 8] | Percentage of fibroblast cells which expressed MMP-3 [4, 9] | Percentage of fibroblast cells which expressed MMP-7 [4, 9] | Percentage of fibroblast cells which expressed MMP-9 [4, 9] | Percentage of fibroblast cells which expressed MMP-11 [4, 9] | Percentage of fibroblast cells which expressed MMP-13 [4, 9] | Percentage of fibroblast cells which expressed MMP-14 [4, 9] | Percentage of fibroblast cells which expressed SPARC [4, 9] | Percentage of fibroblast cells which expressed TGFα [4, 9] | Percentage of fibroblast cells which expressed TGFβ1 [4, 9] | Percentage of fibroblast cells which expressed TGFβ2 [4, 9] | Percentage of fibroblast cells which expressed TGFβ3 [4, 9] | Percentage of fibroblast cells which expressed MMP-3 [4, 10] | Percentage of fibroblast cells which expressed MMP-7 [4, 10] | Percentage of fibroblast cells which expressed MMP-9 [4, 10] | Percentage of fibroblast cells which expressed MMP-11 [4, 10] | Percentage of fibroblast cells which expressed MMP-13 [4, 10] | Percentage of fibroblast cells which expressed MMP-14 [4, 10] | Percentage of fibroblast cells which expressed SPARC [4, 10] | Percentage of fibroblast cells which expressed TGFα [4, 10] | Percentage of fibroblast cells which expressed TGFβ1 [4, 10] | Percentage of fibroblast cells which expressed TGFβ2 [4, 10] | Percentage of fibroblast cells which expressed TGFβ3 [4, 10] | PHF cells expressing MMP-3 [5] | PHF cells expressing MMP-7 [5] | PHF cells expressing MMP-9 [5] | PHF cells expressing MMP-11 [5] | PHF cells expressing MMP-13 [5] | PHF cells expressing MMP-14 [5] | PHF cells expressing SPARC [5] | PHF cells expressing TGF-α [5] | PHF cells expressing TGF-β1 [5] | PHF cells expressing TGF-β2 [5] | PHF cells expressing TGF-β3 [5]
